The subject of test [1] is A. planipennis. The following applies: Silk et al. 2009; cited from earlier work.
The test system of test [2] is A. planipennis. The test can be described thus: Two-choice Y-tube olfactometer assay. In kind it is in vivo, Agrilus planipennis. The following applies: (3Z)-hexenol 5 μg. As to the method: A Y-tube olfactometer (Analytical Research Systems Inc, Gainsville, Fla.) was used to test for attraction of A. planipennis to lactone isomers and host volatiles. […] Each arm was connected to a cylinder that contained the stimulus. Charcoal filtered air was passed into each arm at a flow rate of 1.2 L/min. Treatments included the pheromone alone: (3Z)-lactone (10 μg); (3E)-lactone (10 μg); and 60:40 (3E):(3Z)-lactone (10 μg). Next, we tested bark sesquiterpenes and a green leaf volatile alone: Phoebe oil (25 μg and 2.5 μg) and (3Z)-hexenol (5 μg). We then tested the pheromone combined with bark sesquiterpenes: (3Z)-lactone (10 μg)+Phoebe oil (at both 25 μg and 2.5 μg); (3E)-lactone (10 μg)+Phoebe oil (at both 25 μg and 2.5 μg). Finally, we tested the pheromone combined with the green leaf volatile: (3Z)-lactone (10 μg)+(3Z)-hexenol (5 μg); and (3E)-lactone (10 μg)+(3Z)-hexenol (5 μg). Each stimulus (l μl for single compound treatments and a total of 2 μl for two-compound treatments) was diluted in hexane, placed on a strip of filter paper and given one minute for the solvent to evaporate before being placed in the olfactometer. A second filter paper, treated with the equivalent volume of solvent was placed in the other arm of the olfactometer to serve as the control. The apparatus was rinsed with acetone after each treatment, and the arm attached to the test stimulus was randomized between replicates.
For each treatment, we tested increasing numbers of adults until we obtained a minimum of 12 beetles responding to the stimuli (either positively or negatively). To obtain this minimum, we tested 15-54 beetles per treatment. For each trial, a single A. planipennis (mature virgin male or female, >10 days old) was given ten minutes to choose between the two stimuli; adults were used only once in the bioassay. […] A chi-square test was conducted for each independent trial.

The subject of test [3] is A. planipennis. The following applies: background, cited studies; cited from earlier work.
The subject of test [4] is A. planipennis. The test can be described thus: Field trapping 2011 experiment 2: (3Z)-lactone, (3Z)-hexenol and trap height factorial, dark green traps. In kind it is in vivo, Agrilus planipennis. The following applies: 2×2×2 factorial, lactone 3 mg/lure. As to the method:
Two trapping experiments were conducted in green and white ash plantations (F. pennsylvanica Marsch and F. americana L.) located 40-60 km southeast of Sarnia, Ontario in 2011. Trees were 20-30 yr old, 5-8 m tall, 12-18 cm in diameter, and spaced 2-3 m apart within and between rows. Five sites were used in total: four were green ash and the fifth was a white ash plantation. Trees at four of the sites generally appeared healthy with few or no signs of decline and only a few with obvious signs and symptoms of infestation by A. planipennis. At the fifth site, obvious crown decline and signs of infestation were apparent on about one-quarter of trees.
Green prism sticky traps (0.30 cm×35.00 cm×58.75 cm) (Synergy Semiochemicals Corp., Burnaby, BC) were used in all field trials, deployed using modified umbrella rig spreaders (Zing Products, Westport, Mass.). Traps were spaced 20-25 m apart and lure treatments replicated in randomized complete block designs. Traps were deployed either using ropes tied between two trees or using a single line over a canopy branch, as described further below for each specific experimental objective. Traps were typically checked every 2 wk and A. planipennis were collected, counted, and sexed.
Experiment 2 was a 2×2×2 factorial experiment designed to test the effects of (3Z)-lactone, (3Z)-hexenol, trap height, and their interactions on numbers of A. planipennis captured on sticky, dark green (540-nm wavelength) (Francese et al 2010a) prism traps. Traps were baited with either (3Z)-lactone, (3Z)-hexenol, (3Z)-lactone+(3Z)-hexenol, or neither compound (unbaited control) and all treatments were deployed both below the canopy or in the mid-canopy. Traps placed below the canopy were suspended from ropes tied between two trees so the trap was 1-1.5 m from either tree and the top of the trap was 1.5-2 m above the ground. Traps in the canopy were deployed from a single line looped over a mid-canopy branch such that traps were 1-1.5 m from the main stem and their tops were 6 m above ground. (3Z)-Lactone was loaded onto rubber septa lures at a dosage of 3 mg/lure. Release rates of the (3Z)-lactone and (3Z)-hexenol were 60-70 μg/day and 50-100 mg/day, respectively at 25° C. Traps were in the field from 8 June-5 August, with one block at one site (Nauvoo Ranch), 5 blocks at a second site (LaSalle, the one white ash plantation), and 4 blocks at a third site (Brook Line). The 3 mg (3Z)-lactone lures were estimated to maintain adequate release rates for a minimum of three weeks and thus were replaced after three weeks; (3Z)-hexenol lures were not replaced during the experiment.
Numbers of A. planipennis captured in the trapping experiments were subjected to ANOVA separately for males and females. […]

For another test, the system named is A. planipennis antennae. The test can be described thus: EAG dose-response study. The following applies: 1 μg applied dose; n=80, 15 antennal preparations. On the set-up: species or system Agrilus planipennis. From the text:
EAG analyses were made by methods and equipment generally described by Cossé & and Bartelt (2000). EAG connections were made by inserting a glass-pipette silver-grounding electrode into the back of an excised beetle head. A second glass-pipette silver-recording probe was placed in contact with the distal end of one antenna. Both pipettes were filled with Beadle-Ephrussi (Ephrussi and Beadle 1936) saline.
For the EAG-dose-response study, (3Z)- and (3E)-lactones were purified (99.9% purity by GC/MS) by high performance liquid chromatography (HPLC) using a Waters 515 pump, a Waters R401 refractive index detector, and a 25 cm by 0.46 cm i.d. silica column (Adsorbosphere Silica 5 μm, Alltech, Deerfield, Ill.), treated with silver nitrate as described by Heath and Sonnett (1980). Solvent was 8% ether in hexane. Ten micro liters of serially diluted solutions (methylene chloride) of synthetic (3Z)-lactone and (3E)-lactone were applied to filter paper strips (0.5 cm×5 cm, Whatman no. 1). The filter paper strips were placed in 14-cm-long Pasteur pipettes, hereafter referred to as stimulus cartridges, after 5 min at room temperature. Stimulus doses tested were 0.01, 0.1, 1, 10, and 100 μg. Male and female antennae were exposed to single 0.2s puffs of odor-bearing air at 5 ml/s by placing the tip of an stimulus cartridge into a hole of a glass tube (0.7 cm ID×20 cm), 10 cm from the outlet and 11 cm away from the antennal preparation. Airflow through the glass tube was humidified and set at 10 ml/s. Puff duration and airflow speeds were maintained by a stimulus flow controller (SFC-2, Syntech, Hilversum, The Netherlands). Stimuli cartridges were selected in random order, beginning with the lowest dosages and working upward to the highest dosages. Each puffed dosage was preceded and followed by a puff from a solvent blank cartridge (filter paper plus solvent). To compensate for possible deterioration of the antennal preparation, a standard control compound, geranyl acetone (1 μg dose) preceded dosages of stimuli compound. EAG amplitudes were normalized according to the responses to geranyl acetone by dividing the amplitude of the EAG generated by the test compounds by that of geranyl acetone. Dose-response series were replicated, using different antennal preparation for each replication, and the EAG responses were expressed as a percentage of the EAG responses to geranyl acetone. Each antennal preparation was tested with freshly prepared sets of stimuli cartridges. Male and female EAG responses were submitted to analysis of variance (ANOVA) using Statistica for Windows software (StatSoft Inc. Tulsa, Okla.)).

Where [5] appears, read: females, low dose of Phoebe oil.

The text below walks through data of patent US9226503B2, “Composition and method for attraction of emerald ash borer Agrilus planipennis fairmaire (coleoptera: buprestidae)” (Her Majesty the Queen in Right of Canada, as represented by …, priority 2011, dated 2016).

On to `CCCCCCCCCCCCCCCCC(C)CCCCCCCC` (centres unmarked) [9-methylpentacosane], for which, in the test with A. planipennis [1], the “copulatory activity in males upon antennal contact (literature)” value is “stimulates full copulatory activity in males”.

As to `CC/C=C\CCO` [(3Z)-hexenol], in the test on A. planipennis [2] (setting [5]), the “attraction of females in Y-tube olfactometer vs hexane control” value was “slightly attracted” and the “females responded in Y-tube olfactometer” value was 75%. The “attraction of males in Y-tube olfactometer vs hexane control” value with A. planipennis [2] (males, lactone 10 μg, chi-square test) was “highly attracted”. For the same compound, the “attractiveness to A. planipennis (literature)” value with A. planipennis [3] is “highly antennally active and attractive to males”. Besides, in the test on A. planipennis [4], the “mean capture of males per trap, effect of presence of the lure component” value was “significantly and positively affected”; the “mean catch of females, effect of the lure component” value is “not”.

Take `CC(=O)CC/C=C(\C)CCC=C(C)C` [geranyl acetone, reference compound]: in the test with A. planipennis antennae, the “mean EAG response of antennae to standard (±SD)” value is on record as −0.06±0.03 mV.
